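Each compound was tested at five concentrations against cells in 96-well plates for 48 hours. GI50 marks 50% less growth.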 Active and inactive are the calls of the source. Cut-off read from the data, not from the text of the source: active = GI50 up to about 1.1 µM and inactive = higher.
Tests used:
Experiment in all cases: DTP human tumour cell line panel, 48 h
NCI-H23 = test system: NCI-H23
HCT-15 = test system: HCT-15
NCI-H460 = test system: NCI-H460
NCI-H522 = test system: NCI-H522
SNB-19 = test system: SNB-19
SK-MEL-28 = test system: SK-MEL-28
SF-539 = test system: SF-539
LOX IMVI = test system: LOX IMVI
EKVX = test system: EKVX
KM12 = test system: KM12
UACC-62 = test system: UACC-62
TK-10 = test system: TK-10
Malme-3M = test system: Malme-3M
OVCAR-8 = test system: OVCAR-8
OVCAR-3 = test system: OVCAR-3
DMS-273 = test system: DMS-273
SNB-78 = test system: SNB-78
DMS-114 = test system: DMS-114
M19-MEL = test system: M19-MEL

Row | Compound | GI50 (NCI-H23) | GI50 (HCT-15) [µM] | GI50 (NCI-H460) | GI50 (NCI-H522) | GI50 (SNB-19) | GI50 (SK-MEL-28) | GI50 (SF-539) | GI50 (LOX IMVI) | GI50 (EKVX) | GI50 (KM12) | GI50 (UACC-62) | GI50 (TK-10) | GI50 (Malme-3M) | GI50 (OVCAR-8) | GI50 (OVCAR-3) | GI50 (DMS-273) | GI50 (SNB-78) | GI50 (DMS-114) | GI50 (M19-MEL)
1 | CS(=O)(=O)c1ccc(C2=C(c3ccccc3)C(=O)OC2)cc1 [ROFECOXIB] | > 100 µM (inactive) | > 100 | > 100 µM (inactive) | > 100 µM (inactive) | > 100 µM (inactive) | > 100 µM (inactive) | > 100 µM (inactive) | > 100 µM (inactive) | > 100 µM (inactive) | > 100 µM (inactive) | > 100 µM (inactive) | > 100 µM (inactive) | > 100 µM (inactive) | > 100 µM (inactive) | > 100 µM (inactive) | – | – | – | –
2 | O=C(O)c1ccc(O)c(/N=N/c2cc(S(=O)(=O)O)c3ccccc3c2O)c1 | > 100 µM (inactive) | > 10 | 37.2 µM (inactive) | – | > 100 µM (inactive) | > 100 µM (inactive) | > 10 µM (inactive) | > 100 µM (inactive) | 23.3 µM (inactive) | > 100 µM (inactive) | – | > 100 µM (inactive) | > 100 µM (inactive) | > 100 µM (inactive) | 92.3 µM (inactive) | > 100 µM (inactive) | > 100 µM (inactive) | 82.6 µM (inactive) | 55.6 µM (inactive)
3 | S=C(/N=c1\sc(NCc2ccccc2)nc2sc3c(c12)CCN(N1CCc2c(sc4nc(NCc5ccccc5)s/c(=N\C(=S)NCc5ccccc5)c24)C1)C3)NCc1ccccc1 | 24.6 µM (inactive) | 22.3 | 54.8 µM (inactive) | 37.7 µM (inactive) | 28.2 µM (inactive) | 63.4 µM (inactive) | 23.4 µM (inactive) | 15 µM (inactive) | 19.9 µM (inactive) | 38 µM (inactive) | 38.6 µM (inactive) | 48.9 µM (inactive) | 70.3 µM (inactive) | 20.9 µM (inactive) | 20.1 µM (inactive) | – | – | – | –
4 | COC(=O)c1cccc(COc2ccc([N+](=O)[O-])cc2Cl)c1 | > 100 µM (inactive) | 70.5 | > 100 µM (inactive) | 63.7 µM (inactive) | > 100 µM (inactive) | > 100 µM (inactive) | > 100 µM (inactive) | 85.5 µM (inactive) | 37.4 µM (inactive) | > 100 µM (inactive) | 43.4 µM (inactive) | > 100 µM (inactive) | > 100 µM (inactive) | > 100 µM (inactive) | 63.4 µM (inactive) | – | – | – | –
5 | Cc1c(C(=O)c2ccc(N)c3ccccc23)c2ccccc2n1CCN1CCOCC1 | 29.7 µM (inactive) | 21 | 3.4 µM (inactive) | 6.82 µM (inactive) | 21.5 µM (inactive) | 43.5 µM (inactive) | 19.7 µM (inactive) | 22.5 µM (inactive) | 29.1 µM (inactive) | 3.38 µM (inactive) | 16.4 µM (inactive) | 31 µM (inactive) | 18.3 µM (inactive) | 31.2 µM (inactive) | 15.7 µM (inactive) | – | – | – | –
6 | O=C1/C(=C/c2ccccc2)CN(C(=O)OCC(Cl)(Cl)Cl)C/C1=C\c1ccccc1 | 2.25 µM (inactive) | 1.95 | 2.1 µM (inactive) | 3.47 µM (inactive) | 3.27 µM (inactive) | 1.66 µM (inactive) | 4.29 µM (inactive) | 0.792 µM (active) | > 10 µM (inactive) | 1.69 µM (inactive) | 2.71 µM (inactive) | 4.46 µM (inactive) | 3.2 µM (inactive) | 1.76 µM (inactive) | 4.19 µM (inactive) | 1.5 µM (inactive) | 1.34 µM (inactive) | 1.95 µM (inactive) | 1.39 µM (inactive)
7 | C/C(CC(=O)Nc1ccc(C)c(C)c1)=N\NC(N)=S | > 100 µM (inactive) | – | > 100 µM (inactive) | > 100 µM (inactive) | – | > 100 µM (inactive) | > 100 µM (inactive) | > 100 µM (inactive) | > 100 µM (inactive) | > 100 µM (inactive) | > 100 µM (inactive) | > 100 µM (inactive) | > 100 µM (inactive) | > 100 µM (inactive) | > 100 µM (inactive) | > 100 µM (inactive) | > 100 µM (inactive) | > 100 µM (inactive) | –
8 | CNS(=O)(=O)NN(C)S(=O)(=O)c1ccc2ccccc2c1 | > 100 µM (inactive) | > 100 | – | > 100 µM (inactive) | > 10 µM (inactive) | – | > 100 µM (inactive) | > 100 µM (inactive) | > 100 µM (inactive) | > 100 µM (inactive) | > 100 µM (inactive) | > 100 µM (inactive) | > 100 µM (inactive) | > 100 µM (inactive) | – | > 100 µM (inactive) | – | > 100 µM (inactive) | > 100 µM (inactive)
9 | CC(C)CC1C(=O)NCCC(NC(=O)C(N)Cc2ccc(O)cc2)C(=O)NC(Cc2ccccc2)C(=O)NC(Cc2ccccc2)NC1=O (stereo not drawn) | > 100 µM (inactive) | > 100 | > 100 µM (inactive) | > 100 µM (inactive) | > 100 µM (inactive) | > 100 µM (inactive) | > 100 µM (inactive) | > 100 µM (inactive) | > 100 µM (inactive) | > 100 µM (inactive) | > 100 µM (inactive) | > 100 µM (inactive) | > 100 µM (inactive) | > 100 µM (inactive) | > 100 µM (inactive) | – | – | – | –
10 | CSc1ccc2c(c1)N(CCCN(C)C)c1ccccc1S2 | 16.4 µM (inactive) | 15 | 10.8 µM (inactive) | 12.8 µM (inactive) | 16.2 µM (inactive) | 2.29 µM (inactive) | 17.3 µM (inactive) | 11.6 µM (inactive) | 18.6 µM (inactive) | 11.8 µM (inactive) | 10.4 µM (inactive) | 14.9 µM (inactive) | 9.16 µM (inactive) | 17.2 µM (inactive) | 12.8 µM (inactive) | – | – | – | –
11 | N#C/C(=C\c1cn(Cc2ccccc2)c2ccccc12)c1nn(-c2ccccc2)c(N)c1C#N | 14.2 µM (inactive) | 31.1 | 12 µM (inactive) | 13.2 µM (inactive) | 13.6 µM (inactive) | 27.7 µM (inactive) | 3.11 µM (inactive) | 32.2 µM (inactive) | 8.07 µM (inactive) | 26.1 µM (inactive) | 10.8 µM (inactive) | 15.8 µM (inactive) | 21.4 µM (inactive) | 10.1 µM (inactive) | 18.2 µM (inactive) | – | – | – | –
12 | O=CC(NC(=O)N(CCCl)N=O)C(O)C(O)C(O)CO (stereo not drawn) | 993 µM (inactive) | 1190 | 272 µM (inactive) | 1160 µM (inactive) | 312 µM (inactive) | 817 µM (inactive) | 119 µM (inactive) | – | > 1250 µM (inactive) | > 1250 µM (inactive) | 47 µM (inactive) | > 1250 µM (inactive) | 347 µM (inactive) | 1160 µM (inactive) | > 1250 µM (inactive) | 1000 µM (inactive) | – | 1040 µM (inactive) | –
13 | c1ccc(Cc2cccc3cc(-c4ccc(-c5ccccc5)cc4)[nH]c23)cc1 | > 100 µM (inactive) | > 100 | > 100 µM (inactive) | 17.2 µM (inactive) | 93.3 µM (inactive) | > 100 µM (inactive) | 53.8 µM (inactive) | > 100 µM (inactive) | > 100 µM (inactive) | 86.9 µM (inactive) | > 100 µM (inactive) | > 100 µM (inactive) | 1.76 µM (inactive) | 45.8 µM (inactive) | > 100 µM (inactive) | – | – | – | –
14 | COC(=O)N/N=C(\C)C(CN1CCOCC1)C(c1ccccc1)c1cc2ccccc2oc1=O (stereo not drawn) | > 100 µM (inactive) | > 100 | > 100 µM (inactive) | > 100 µM (inactive) | > 100 µM (inactive) | > 100 µM (inactive) | > 100 µM (inactive) | > 100 µM (inactive) | > 100 µM (inactive) | > 100 µM (inactive) | > 100 µM (inactive) | > 100 µM (inactive) | 62.5 µM (inactive) | > 100 µM (inactive) | > 100 µM (inactive) | – | – | – | –
15 | O=C1c2ccccc2-c2nc(-c3cccs3)cc3c2c1nc1ccccc13 | 11.9 µM (inactive) | 15.2 | 4.69 µM (inactive) | 12.7 µM (inactive) | 35.9 µM (inactive) | 17.5 µM (inactive) | 24.5 µM (inactive) | 8.24 µM (inactive) | 98.2 µM (inactive) | 11.4 µM (inactive) | 5.41 µM (inactive) | > 100 µM (inactive) | 3.56 µM (inactive) | 41.8 µM (inactive) | 2.3 µM (inactive) | – | – | – | –
16 | NC(=O)CN1CC(C2=C(O)CN(CC(N)=O)C2=O)=CC1=O | > 100 µM (inactive) | > 100 | > 100 µM (inactive) | > 100 µM (inactive) | > 100 µM (inactive) | > 100 µM (inactive) | > 100 µM (inactive) | > 100 µM (inactive) | > 100 µM (inactive) | > 100 µM (inactive) | > 100 µM (inactive) | > 100 µM (inactive) | > 100 µM (inactive) | > 100 µM (inactive) | > 100 µM (inactive) | – | – | – | –
17 | CC(=O)OCC1(C)C(O)CCC2(C)C1CCC1CC3CC12CCC3(O)CO (stereo not drawn) | 58.7 µM (inactive) | > 100 | 6.75 µM (inactive) | > 26.6 µM (inactive) | > 100 µM (inactive) | > 100 µM (inactive) | 50.6 µM (inactive) | 44.3 µM (inactive) | > 100 µM (inactive) | > 100 µM (inactive) | 61.8 µM (inactive) | > 100 µM (inactive) | > 100 µM (inactive) | 44.1 µM (inactive) | > 100 µM (inactive) | – | – | – | –

— ChEMBL document CHEMBL1201862, “PubChem BioAssay data set” (2004)
